According to patent publication US4643994A, “Novel organic trithio oxides and method for the preparation thereof” (The Research Foundation of State University of New York, priority 1984, dated 1987):
Read-outs that look alike come from different tables or passages of the source.

Columns and labels:
[1] = system: blood platelets (platelet rich, citrated, human blood plasma); experiment: inhibition of platelet aggregation in platelet rich, citrated human blood plasma (aggregometer), agonist ADP or collagen; format: cell-based; conditions: for IC50: agonist ADP (10 μg), read-out: ID50 (the source's name)
[2] = system: blood platelets (platelet rich, citrated, human blood plasma); experiment: as above; format: cell-based; conditions: for IC50: agonist COLLAGEN (2 μg), read-out: ID50 (the source's name)
Text: (§1) Various substances are known to cause blood platelets to aggregate which in turn can result in blood clots in the blood circulatory system of living animals. Certain other compounds are known to prevent blood platelet aggregation and accordingly are known as antithrombotic agents, while other compounds prevent clotting of aggregated platelets and are called anticoagulants. Both are used in the treatment of phlebitis, stroke, coronary thrombosis, and arteriosclerosis. In a typical test to determine antithrombotic activity, the suspected antithrombotic substance is mixed with a suspension of blood platelets, incubated for a few minutes, and then the suspension is treated with a known amount of a known agonist (agents inducing aggregation). The effectiveness of the suspected antithrombotic is compared to a control which has been treated with the agonist but which has not been treated with the antithrombotic and a quantitative measure of effectiveness is determined by ascertaining the concentration of suspected antithromobotic necessary to reduce by 50% the extent of platelet aggregation compared to the control. This measurement is termed the ID50 of the antithrombotic. Typical agonists include collagen and ADP (adenosine diphosphate).
Platelet rich, citrated, human blood plasma (250,000 platelets/μL) was prepared and divided into 0.45 ml aliquots for use in determining ID50 levels of the subject compounds. The aliquots were treated with various quantities of the compounds of the instant invention and thereafter were preincubated by maintaining in an aggregometer curvette for two (2) minutes at 37° C. with stirring (950 RPM). Control aliquots free of antithrombotic component, were maintained and subjected to each of the processing steps. Each aliquot was then treated with an agonist in this instance being an appropriate amount of ADP (10 μmole) or collagen (2 μg). Aggregation in each aliquot was monitored for a period of 3-5 minutes and percent aggregation was quantified by a dual channel aggregometer which ascertained percent aggregation by comparision against a control of light transmittance through the sample.

S. Aureus bacteria = experiment: antibacterial activity against S. Aureus; format: cell-based
blood platelets = experiment: antithrombotic activity in combination with other known antithrombotics
Text: as §1

Molecule: C=CCSS/C=C/C[S+]([O-])CCCC(=O)OCC (stereo not shown) [Aliquot 9]
- IC50 ([1]; Homo sapiens, Platelet): 388 µM
- IC50 ([2]; Homo sapiens, Platelet): 388 µM

Molecule: C=CC[S+]([O-])CC=CSS(=O)(=O)CC=C (stereo not shown) [Example 5, (E,Z)-4,5,9-trithiadodeca-1,6,11-triene 4,4,9-trioxide]
- growth of S. Aureus bacteria (S. Aureus bacteria; 0.25 m. molar concentration): growth of the bacteria was inhibited
- killing of S. Aureus bacteria (S. Aureus bacteria; 1.0 m. molar concentration): killing of the bacteria

Molecule: C=CCS(=O)(=O)C/C=C/SSCc1ccccc1 [Aliquot 12]
- IC50 ([1]; Homo sapiens, Platelet): 204 µM

Molecule: C=CCS(=O)(=O)C/C=C/SS(=O)(=O)CC=C [Aliquot 8]
- ID50 columns: result in words ([2]; printed across the ADP (10 μg) and COLLAGEN (2 μg) columns): Causes Aggregation

Molecule: COc1ccc2c(c1)c(CC(=O)O)c(C)n2C(=O)c1ccc(Cl)cc1 [Indomethacin, indomethacin]
- antithrombotic activity when combined with various compounds of the invention (blood platelets): particularly enhanced antithrombotic activity

Molecule: CSS/C=C/C[S+](C)[O-] (stereo not shown) [Aliquot 5, (E) 2,3,7-trithiaocta-4-ene 7-oxide]
- IC50 ([1]; Homo sapiens, Platelet): > 400 µM
- IC50 ([2]; Homo sapiens, Platelet): 332 µM

Molecule: CCCCC[C@H](O)/C=C/[C@@H]1[C@H]2C/C(=C/CCCC(=O)O)O[C@H]2C[C@H]1O [prostacyclin]
- antithrombotic activity when combined with various compounds of the invention (blood platelets): particularly enhanced antithrombotic activity

Molecule: C=CCSSCCC[S+]([O-])CC=C (stereo not shown) [Aliquot 3]
- IC50 ([1]; Homo sapiens, Platelet): > 400 µM
- IC50 ([2]; Homo sapiens, Platelet): > 400 µM

Molecule: C=CCSS/C=C/C[S+](C)[O-] (stereo not shown) [Aliquot 4]
- IC50 ([1]; Homo sapiens, Platelet): > 400 µM
- IC50 ([2]; Homo sapiens, Platelet): 374 µM

Molecule: (E,Z)-4,5,9-trithiadodeca-1,6,11-triene 9,9dioxide [Example 2]
- IC50 [1]: 209 µM
- IC50 [2]: 214 µM

Molecule: (E)-4,5,9-trithiadodeca-6,11-diene 9,9 dioxide [Aliquot 10]
- IC50 [1]: 182 µM

Molecule: C=CCS(=O)(=O)C/C=C/SSC/C=C/C [Aliquot 11]
- IC50 ([1]; Homo sapiens, Platelet): 208 µM

Molecule: C=CCS(=O)(=O)C/C=C/SS(=O)(=O)CC=C [Aliquot 8, (E) 4,5,9-trithiadodeca-1,6,11-triene 4,4,9,9-tetraoxide]
- effect on platelet aggregation ([1]; at levels of 40 μg/ml of ADP): appears to act as an agonist

Molecule: C=CCS(=O)(=O)C/C=C/SSC/C=C/CCC [Aliquot 14]
- IC50 ([1]; Homo sapiens, Platelet): > 400 µM

Molecule: C=CCS(=O)(=O)C/C=C/SSCCC [Aliquot 10]
- IC50 ([1]; Homo sapiens, Platelet): 210 µM

Molecule: C=CCS(=O)(=O)C/C=C/SSC/C=C\CCC [Aliquot 13]
- IC50 ([1]; Homo sapiens, Platelet): 280 µM
